Experimental data reported in ChEMBL document CHEMBL6134860, “Discovery and optimization of a novel carboxamide scaffold with selective antimalarial activity” (Eur J Med Chem, 2025).

Tests used:
Plasmodium falciparum = experiment: microbe, parasite or virus in culture; type: functional, organism-based; conditions: W2, 72 h
[1] = Cytotoxicity against human HepG2 cells measured after 72 hrs by hoechst 33342 staining based imaging assay; type: toxicity, cell-based

| Structure (SMILES) | EC50 (Plasmodium falciparum; read-out: EC50) [µM] | EC50 (Plasmodium falciparum; read-out: pEC50 (converted)) [µM] | CC50 at 72 h ([1]; read-out: CC50) [µM] | CC50 at 72 h ([1]; read-out: pCC50 (converted)) [µM] |
| --- | --- | --- | --- | --- |
| O=C(Nc1ccc([N+](=O)[O-])cc1)c1ncn(-c2ccc(Cl)cc2)n1 | > 10 | > 10 | > 10 | > 10 |
| COc1ccc(-n2cnc(C(=O)N(C)c3ccc(C)c(C)c3)n2)cc1 | > 10 | > 10 | > 10 | > 10 |
| COc1ccc(N(C)C(=O)c2ncn(-c3ccc(Cl)cc3)n2)cc1 |  | 1.91 | > 10 | > 10 |
| Cc1ccc(-c2ncc(C(=O)N(C)c3ccc(Cl)cc3)o2)cc1 | > 10 | > 10 | > 10 | > 10 |
| CN(C(=O)c1ncn(-c2ccc(Cl)cc2)n1)c1ccc([N+](=O)[O-])cc1 |  | 2.29 | > 10 | > 10 |
| CN(C(=O)c1ncn(-c2ccc(Cl)cc2)n1)c1ccc(C(C)(C)C)cc1 | > 8.03 | > 7.94 | > 1.76 | > 1.78 |
| Cc1ccc(-c2cnc(C(=O)N(C)c3ccc(Cl)cc3)s2)cc1 | > 10 | > 10 | > 10 | > 10 |
| Cc1nc(-c2ccc(Cl)cc2)oc1C(=O)N(C)c1ccc(Cl)cc1 | > 4.34 | > 4.37 | > 10 | > 10 |
| Cc1ccc(-c2cnc(C(=O)N(C)c3ccc(Cl)cc3)[nH]2)cc1 | > 10 | > 10 | > 10 | > 10 |
| CCc1ccc(N(C)C(=O)c2ncn(-c3ccc(Cl)cc3)n2)cc1 | > 5.24 | > 5.25 | > 10 | > 10 |
| Cc1ccc(N(C)C(=O)c2cn(-c3ccc(Cl)cc3)nn2)cc1 | > 10 | > 10 | > 10 | > 10 |
| CC(C)c1ccc(-n2cnc(C(=O)N(C)c3ccc(Cl)cc3)n2)cc1 |  | 0.851 | > 10 | > 10 |
| Cc1ccc(C(=O)N(C)c2ncn(-c3ccc(C)cc3)n2)cc1 | > 3.38 | > 3.39 | > 10 | > 10 |
| CN(C(=O)c1ncn(-c2ccc(Cl)cc2)n1)c1ccc(F)cc1 |  | 1.78 | > 10 | > 10 |
| O=C(Nc1ccc(C(F)(F)F)cc1)c1ncn(-c2ccc(Cl)cc2)n1 | > 6.44 | > 6.46 | > 10 | > 10 |
| CN(C(=O)c1cnc(-c2ccc(Cl)cc2)s1)c1ccc(Cl)cc1 | > 10 | > 10 | > 10 | > 10 |

| Structure (SMILES) | EC50 (Plasmodium falciparum; read-out: EC50) [µM] | EC50 (Plasmodium falciparum; read-out: pEC50 (converted)) [µM] | CC50 at 72 h ([1]; read-out: CC50) [µM] | CC50 at 72 h ([1]; read-out: pCC50 (converted)) [µM] |
| --- | --- | --- | --- | --- |
| Cc1ccc(-c2nc(C)c(C(=O)N(C)c3ccc(Cl)cc3)s2)cc1 | > 4.78 | > 4.79 | > 10 | > 10 |
| Cc1ccc(-n2cnc(C(=O)N(C)c3ccc(C)c(C)c3)n2)cc1 | > 6.93 | > 6.92 | > 10 | > 10 |
| COc1ccc(C[C@H](N)C(=O)N[C@H]2[C@@H](O)[C@H](n3cnc4c(N(C)C)ncnc43)O[C@@H]2CO)cc1 [PUROMYCIN] |  | 0.0631 |  | 0.646 |
| Cc1ccc(NC(=O)c2ncn(-c3ccc(Cl)cc3)n2)cc1C | > 2.89 | > 2.88 | > 10 | > 10 |
| Cc1ccc(-n2cnc(N(C)C(=O)c3ccc(Cl)cc3)n2)cc1 | > 1.8 | > 1.82 | > 10 | > 10 |
| Cc1cccc(N(C)C(=O)c2ncn(-c3ccc(Cl)cc3)n2)c1 | > 4.03 | > 4.07 | > 10 | > 10 |
| CN(C(=O)c1ncc(-c2ccc(Cl)cc2)s1)c1ccc(Cl)cc1 | > 6.75 | > 6.76 | > 10 | > 10 |
| Cc1ccc(N(C)C(=O)c2ncn(-c3ccc(C(C)C)cc3)n2)cc1C | > 3.86 | > 3.89 | > 10 | > 10 |
| O=C(Nc1ccc(F)cc1)c1ncn(-c2ccc(Cl)cc2)n1 | > 5.88 | > 5.89 | > 10 | > 10 |
| CCc1ccc(NC(=O)c2ncn(-c3ccc(Cl)cc3)n2)cc1 | > 6.93 | > 6.92 | > 10 | > 10 |
| Cc1ccc(-n2cnc(C(=O)Nc3ccc(Cl)cc3)n2)cc1 | > 10 | > 10 | > 10 | > 10 |
| O=C(c1ccc(Cl)cc1)c1ncc(-c2ccc(Cl)cc2)o1 | > 10000 | > 10 | > 10 | > 10 |
| O=C(Nc1ccc(Cl)c(Cl)c1)c1ncn(-c2ccc(Cl)cc2)n1 | > 10 | > 10 | > 10 | > 10 |
| Cc1ccc(C(=O)N(C)c2ncn(-c3ccc(Cl)cc3)n2)cc1 |  | 4.27 | > 10 | > 10 |
| CN(C(=O)c1ccc(Cl)cc1)c1ncn(-c2ccc(Cl)cc2)n1 | > 1.52 | > 1.51 | > 10 | > 10 |
